# Reference: US20070089183A1, “Size and/or growth engineering by modulation of the interaction between calmodulin, and brassinosteroid biosynthetic enzymes and orthologs therof” (Washington State University, priority 2005, published 2007)
# Where no end group is shown, it is not given here.
# What was measured:
# [1] = system: cM1, cM2, cM3 and the dwf1 mutant; experiment: exogenous application of brassinolide to dwarf plants; type: in vivo, Arabidopsis; conditions: data not shown
# Text: To ensure a reliable comparison of the complementary effects of normal DWF1 and the three mutants, T2 plants with similar expression levels were compared (FIG. 3b-d). […] Seeds were produced in most of the slightly shorter siliques of cM1 plants (FIG. 3b, c). […] The dwarf phenotypes of cM1, cM2, cM3 and the dwf1 mutant were rescued by exogenous application of brassinolide (data not shown).
# [2] = system: DWF4 null mutant; experiment: complementation of DWF4 null mutant or overexpression, plant growth; type: in vivo, Arabidopsis
# Text: For example, partial dwarf Arabidopsis plants were generated through manipulation of the DWF4 CaMBD regulatory domain.
molecule,measurement,setting,value
CC(C)[C@H](C)[C@@H](O)[C@H](O)[C@@H](C)[C@H]1CC[C@H]2[C@@H]3COC(=O)[C@H]4C[C@H](O)[C@H](O)C[C@]4(C)[C@H]3CC[C@]12C [brassinolide],rescue of dwarf phenotypes,[1],rescued
DWF4 mutant having a L to D change at amino acid 21: DWF4 with L to D change at aa 21 within the N-terminal CaMBD (PSLLSDLLFLILLKRRNRKTRFNLP; not fully specified; listed as Arabidopsis thaliana),plant growth phenotype,[2]; complementing a DWF4 null mutant,semi-dwarf
mutant having a L to V change at amino acid 28: DWF4 with L to V change at aa 28 within the N-terminal CaMBD (PSLLSLLLFLILVKRRNRKTRFNLP; listed as Arabidopsis thaliana),plant growth phenotype,[2]; overexpression,enhanced growth
